What was measured:
Type in all cases: physicochemical
[1] = Chlorhexidine release from uncoated and polyelectrolyte-encapsulated particles (UV absorption); conditions: H2O, water stored and agitated
Protocol: The content of chlorhexidine in the compound, made from 0.33M CaCl2 and 15 mg/ml chlorhexidine diacetate, was determined by UV-Vis absorption (Lambda 35, Perkin Elmer, USA). […] The chlorohexidine proportion in the spheres (0.33M CaCl2 group) was calculated to be 90%-99.9% when they were co-precipitated from 15 mg/ml chlorhexidine diacetate solution. […] However, after encapsulation polyelectrolyte flakes could be seen on the surface, with the original structure covered (FIG. 11, panel (b)). In order to measure chlorhexidine release over 400 mins, samples were water stored and agitated (Vortex-Genie 2, Germany) for the whole time period. […] There was a linear relationship between chlorhexidine release and time (r2=0.99) FIG. 11, panel (d)).

[2] = Chlorhexidine release from HEMA-UDMA resin discs, with or without ultrasound
Protocol: HEMA-UDMA resin was prepared by mixing 64% urethane dimethacrylate (UDMA) (Esschem UK, Lot: 591-22) and 36% hydroxyethyl methacrylate (HEMA) (Aldrich, 128635, Lot: STBC7495V), 0.08% of N,N-dimethyl-P-toluidine (Acros Organics, Lot: A0207283001) and 0.05% dimethylamino ethyl methacrylate (Aldrich, 234907, Lot: BCBF8391V) were added. The mixture was then stirred for 15 min (800 rpm, VWR Stirrer, USA). Finally, camphorquinone (Aldrich, 12, 489-3, Lot: 2338141) was added at the proportion of 0.1%. The mixture was stirred for another 15 min (VWR Stirrer, USA), and then the viscous liquid resin was prepared. Freeze dried chlorhexidine chloride compounds produced in Example 2 (precipitated with 0.33 M CaCl2) were weighed and incorporated within the resin at a loading level of 5% by weight. To explore the effect of different morphology on the release kinetics, chlorhexidine compounds with spherical, needle and flake morphology (from Example 1, FIG. 1, panels (b) and (c)) were incorporated into the resin. Incorporation of the chlorhexidine compounds within the resin was carried out by rotating the mixture contained in a 1 ml tube for 15 s in a Rotomix (120V/60 Hz, 2850 rotations/min) (ESPE RotoMix, USA). Chlorhexidine diacetate was also incorporated in the prepared resin in the same way, with loading rates of 5%, 10% and 15% (weight %). The filled resin was then placed into a Teflon mould (10 mm in diameter ×2 mm thick) and cured through a Mylar film with a curing light (Bluedent LED pen, Bulgaria) (430-490 nm, 600 mW/sq·cm) for 30 s. Then the discs were next weighed on a microbalance (Salter Ander-180A weighing scale, UK), and chlorhexidine content in each disc was calculated.
For the release study, all sample resin discs (HEMA-UDMA) containing chlorhexidine chloride compounds or chlorhexidine diacetate powder prepared in Example 5 were kept in cuvettes containing 3 ml deionized water, and kept at room temperature. And at each time point, solutions were collected for UV absorption tests (Lambda 35, Perkin Elmer, USA) and replaced with fresh deionized water.
For the chlorhexidine chloride compound doped discs (Example 5) chlorhexidine content was fixed at 5%, and ultrasound was exerted. Four groups (five discs in each group) were repetitively treated with ultrasound for 0 s, 10 s, 20 s, 30 s, accordingly, by contacting the ultrasound probe (Piezon Master 400, Swiss, 60 Hz, 45VA) on the disc surface at time points of 1 h, 3 h, 5 h, 15 h, 25 h, 40 h, 65 h, 95 h, 140 h, 205 h. After that, no ultrasound was carried out for all the groups, but release was carried on until the 650 hour time point. The UDMA-HEMA discs containing needle and flake chlorhexidine compounds and chlorhexidine diacetate (FIG. 1, panels (b) and (c), and FIG. 3, panel (g)) were also tested (UV absorption tests) at the same time points (same sample numbers) but without ultrasound treatment. For the chlorhexidine diacetate powder doped discs chlorhexidine content of 5%, 10% and 15% were also analysed, and no ultrasound treatment was carried out.

[3] = Chlorhexidine release from electrospun PLA fibres at different temperatures; conditions: 5% in electrospun PLA fibres, deionized water, after 120 h
Protocol: Electrospinning was utilized to fabricate spherical chlorhexidine chloride compound doped polylactic acid (PLA) fibres. Polylactic acid (Nature works, 2002D) was dissolved in a mixed solvent of chloroform and acetone (3:1 by volume) at 7 wt %. Spherical chlorhexidine chloride compounds were added at 5% weight to the PLA and mixed using a Rotomix. Electrospinning was carried out at room temperature (25° C.), with a pumping rate set at 1 ml/h, working distance at 15 cm, and voltage at 18 kv. Electrospun PLA fibres were collected on a foil. For the chlorhexidine release test, the fibres were weighed (Salter ANDER-180A weighing scale, UK) and divided into cuvettes, and each sample was 25 mg (n=5). Deionized water was added to each cuvette and fibres were kept immersed. Three groups of chlorhexidine chloride compound doped fibres were tested at different temperatures (25, 37 and 60° C.). At each time point (1, 3, 5, 10, 20, 30, 45, 72, 96, 120 h), the solutions were collected for the UV absorption test (Lambda 35, Perkin Elmer, USA) and replaced with fresh deionized water as in Example 6.

[4] = Thermo-gravimetric analysis (TGA); conditions: TGA at 10° C./min in nitrogen, 50-800° C.
Protocol: The chlorhexidine chloride spheres (0.33M CaCl2 group) were analysed by Thermo-gravimetric analysis (TGA Q50, USA). Chlorhexidine diacetate crystals and CaCl2 powder (Sigma-Aldrich, C8106, Lot: SLBF7416V) were tested as comparisons. TGA was carried out at 10° C./min in a nitrogen atmosphere, over a temperature range of 50-800° C. The chlorhexidine proportion was further confirmed by the TGA result. […] The decomposition temperature of the chlorhexidine chloride spheres (210° C.) was higher than the chlorhexidine diacetate crystals (120° C.).

Cl.Cl.N=C(NCCCCCCNC(=N)NC(=N)Nc1ccc(Cl)cc1)NC(=N)Nc1ccc(Cl)cc1 [chlorhexidine spheres]
time to dissolution [1]: ≤ 1 h | chlorhexidine release ([2]; 5% loading, control group without ultrasound (0 s), by 205 hours): 1.2% | chlorhexidine released by weight ([2]; 5% loading, deionized water, room temperature, no ultrasound, within 65 hours): 0.76% | chlorhexidine release ([2]; 5% loading, ultrasound 10 s at each time point, by 205 hours): 4.6% | chlorhexidine release ([2]; 5% loading, ultrasound 20 s at each time point, by 205 hours): 10.1% | chlorhexidine release ([2]; 5% loading, ultrasound 30 s at each time point, by 205 hours): 14.9% | chlorhexidine release ([2]; no ultrasound, after 650 hours): ~2.7% | chlorhexidine dissolved ([3]; 25° C.): 65.8% | chlorhexidine dissolved ([3]; 37° C.): 79.7% | chlorhexidine dissolved ([3]; 60° C.): 89.6% | decomposition temperature [4]: 210 °C
